Reference: the OligoGym collection
These antisense oligonucleotides have a phosphorothioate backbone; sugars and methylation of C are not fully specified.
Also: test concentration or dose not given here.

Each sequence was assayed against PYGL. Conditions: ASO.
With GCCGTATCCATAGGCTGCAA the remaining target (mRNA or protein) (fraction of control) was ≥ 1.
TCATATTGCCTGTCCCCGAG showed a remaining target (mRNA or protein) (fraction of control) of 0.18.
CTGCAAGTCCTGGGTTGCAG gave a remaining target (mRNA or protein) (fraction of control) of 0.49.
Sequence CAGCGGTTCGCCCATGGCTG has a remaining target (mRNA or protein) (fraction of control) of 0.98.
In the case of GGTGTTGACAGTGTTATTCA, the remaining target (mRNA or protein) (fraction of control) is reported as 0.56.
TCCCGGTGTTGGTGTGTTCT gave a remaining target (mRNA or protein) (fraction of control) of 0.63.
Sequence ATGCTTCTGATTTATCTCAT has a remaining target (mRNA or protein) (fraction of control) of 0.49.
TCCAGCGCCCCACCAGGTGG gave a remaining target (mRNA or protein) (fraction of control) of 0.44.
For ATCAGAGACATCCTTCTCAG, the remaining target (mRNA or protein) (fraction of control) was 0.33.
With CCCCATTCCCAGAGATACTC the remaining target (mRNA or protein) (fraction of control) was 0.32.
Work on TGGAGCCAAACTTGGAGGCT yielded a remaining target (mRNA or protein) (fraction of control) of 0.32.
For TTCCAACCATAGGGTCATTG, the remaining target (mRNA or protein) (fraction of control) was 0.27.
Sequence CACAGCATGGGAACCGACAA has a remaining target (mRNA or protein) (fraction of control) of 0.15.
In the case of GCGCGAAGTAGTAGTCGCGG, the remaining target (mRNA or protein) (fraction of control) is reported as 0.8.
Sequence CTTGACCAGCGTGAAGTGCA has a remaining target (mRNA or protein) (fraction of control) of 0.48.
With CAGCTTTACCACCAATGATA the remaining target (mRNA or protein) (fraction of control) was 0.29.
GGGCGGGACTTCTCCCAAGG showed a remaining target (mRNA or protein) (fraction of control) of 0.79.
ATCTGTGGCTGGAATGACTT gave a remaining target (mRNA or protein) (fraction of control) of 0.79.
For ACGGGCCAGCGCTCCAGGGC, the remaining target (mRNA or protein) (fraction of control) was 0.47.
With AGTATTCTTTTGCCTCGTAC the remaining target (mRNA or protein) (fraction of control) was 0.21.
Sequence CCCATGTAAAATTCCAGAGA has a remaining target (mRNA or protein) (fraction of control) of 0.44.
CTCTTCTATATCCAATCCAA showed a remaining target (mRNA or protein) (fraction of control) of 0.63.
ATGCTCATGCCAAAGATGAA showed a remaining target (mRNA or protein) (fraction of control) of 0.98.
ACAGTTCAAGAGCTGTCGCT was tested, and the remaining target (mRNA or protein) (fraction of control) was 0.39.
For CCGCCCCGCCGCGCCAGGAG, the remaining target (mRNA or protein) (fraction of control) was ≥ 1.
With AGGATGGGTTGATCTTCACT the remaining target (mRNA or protein) (fraction of control) was 0.39.
With TCATGATAAAATAGCATGTT the remaining target (mRNA or protein) (fraction of control) was ≥ 1.
ATTGTCATTGGGATAGAGGA was tested, and the remaining target (mRNA or protein) (fraction of control) was 0.49.
For TTGTCAATTTGATCAATGAC, the remaining target (mRNA or protein) (fraction of control) was 0.62.
GCAGGCAGCAAGTCTCCCAA showed a remaining target (mRNA or protein) (fraction of control) of 0.29.
For ATTTTGCAGACCGAGGTTGA, the remaining target (mRNA or protein) (fraction of control) was 0.31.
TACCTGCCATCCATCTCGGA was tested, and the remaining target (mRNA or protein) (fraction of control) was 0.15.
For CGGGCTGCGCAGAGAGCTGG, the remaining target (mRNA or protein) (fraction of control) was 0.87.
With TCCAACATTAAAGTCTCTGA the remaining target (mRNA or protein) (fraction of control) was 0.62.
With TGCCACGTTCTCCACGCCCA the remaining target (mRNA or protein) (fraction of control) was 0.18.
With GAAGTCCTTGAATACTTTAG the remaining target (mRNA or protein) (fraction of control) was 0.4.
CCACATTGGCCCCATCCATG was tested, and the remaining target (mRNA or protein) (fraction of control) was 0.19.
Work on TCTGTCAGCGGTTCGCCCAT yielded a remaining target (mRNA or protein) (fraction of control) of 0.69.
For ATCACCCAGGAAGCTGTGGA, the remaining target (mRNA or protein) (fraction of control) was 0.31.
TTCTGGTTGAGCTCCCATGC showed a remaining target (mRNA or protein) (fraction of control) of 0.52.

The sequences below were run against AKT1. Conditions: ASO.
With CAGGGAGTCAGGGAGGGC the remaining target (mRNA or protein) (fraction of control) was 0.87.
For CGAAAAGGTCAAGTGCTA, the remaining target (mRNA or protein) (fraction of control) was 0.59.
With CCCAGAGAGATGACAGAT the remaining target (mRNA or protein) (fraction of control) was 0.54.
In the case of GGTCAGGTGGTGTGATGG, the remaining target (mRNA or protein) (fraction of control) is reported as ≥ 1.
TAAAACCCGCAGGATAGT gave a remaining target (mRNA or protein) (fraction of control) of 0.26.
In the case of CTCGCTGTCCACACACTC, the remaining target (mRNA or protein) (fraction of control) is reported as 0.39.
CAACCCTCCTTCACAATA gave a remaining target (mRNA or protein) (fraction of control) of 0.76.
Sequence ATTTGAACAACATAATAC has a remaining target (mRNA or protein) (fraction of control) of 0.89.
With GGAGAACAAACTGGATGA the remaining target (mRNA or protein) (fraction of control) was ≥ 1.
GCCGTGAACTCCTCATCA was tested, and the remaining target (mRNA or protein) (fraction of control) was 0.44.
AGTCTGGATGGCGGTTGT gave a remaining target (mRNA or protein) (fraction of control) of 0.51.
Sequence TTTTCTTCCCTACCCCGC has a remaining target (mRNA or protein) (fraction of control) of 0.36.
In the case of CCCTGTGCCCTGTCCCAG, the remaining target (mRNA or protein) (fraction of control) is reported as 0.45.
CTGGCTGACAGAGTGAGG was tested, and the remaining target (mRNA or protein) (fraction of control) was 0.41.
For GCCTCTCCATCCCTCCAA, the remaining target (mRNA or protein) (fraction of control) was 0.24.
Sequence AAAATACTAAAGTTGAAT has a remaining target (mRNA or protein) (fraction of control) of 0.75.
With CCGAAAGTGCCCTTGCCC the remaining target (mRNA or protein) (fraction of control) was 0.44.
CTTTGACTTCTTTGACCC showed a remaining target (mRNA or protein) (fraction of control) of 0.32.
With GGCTTGAAGGGTGGGCTG the remaining target (mRNA or protein) (fraction of control) was 0.59.
Sequence AAGTGCTACCGTGGAGAG has a remaining target (mRNA or protein) (fraction of control) of 0.43.
Work on TACTCAGGTGTGCCGCAA yielded a remaining target (mRNA or protein) (fraction of control) of 0.34.
Sequence GGCAGCCCCTTTGACTTC has a remaining target (mRNA or protein) (fraction of control) of 0.47.
TCAAAATACCTGGTGTCA gave a remaining target (mRNA or protein) (fraction of control) of 0.49.
GCGGCTGGCTGACAGAGT showed a remaining target (mRNA or protein) (fraction of control) of 0.39.
For GCCACGATGACTTCCTTC, the remaining target (mRNA or protein) (fraction of control) was 0.4.
Work on GCTGCTGTGTGCCTGCCA yielded a remaining target (mRNA or protein) (fraction of control) of 0.62.
CCTGAGTTGTCACTGGGT gave a remaining target (mRNA or protein) (fraction of control) of 0.51.
In the case of ACGTTCTTCTCCGAGTGC, the remaining target (mRNA or protein) (fraction of control) is reported as 0.7.
With TCCTCCTCCTCCTGCTTC the remaining target (mRNA or protein) (fraction of control) was 0.91.
